From publication PMC8269394, “Characterization of an Atypical Trypanosoma brucei Hsp70 Demonstrates Its Cytosolic-Nuclear Localization and Modulation by Quercetin and Methylene Blue” (International Journal of Molecular Sciences, 2021)

Assays:
Assay in all cases: ATPase assay, colorimetric phosphate release
Type in all cases: biochemical
TbHsp70.c [1] = molecular target: T1, TbHsp70.c (Trypanosoma brucei, UniProt Q383E9); details: 600 µM ATP; 37 °C; no Tbj2
T1 construct: gene Tb11.01.3080

TcHsp70B [2] = molecular target: T2, TcHsp70B (Trypanosoma cruzi, UniProt P05456); details: 600 µM ATP; 37 °C; no Tbj2
T2 construct: gene HSP70
T2 sequence (P05456 whole entry): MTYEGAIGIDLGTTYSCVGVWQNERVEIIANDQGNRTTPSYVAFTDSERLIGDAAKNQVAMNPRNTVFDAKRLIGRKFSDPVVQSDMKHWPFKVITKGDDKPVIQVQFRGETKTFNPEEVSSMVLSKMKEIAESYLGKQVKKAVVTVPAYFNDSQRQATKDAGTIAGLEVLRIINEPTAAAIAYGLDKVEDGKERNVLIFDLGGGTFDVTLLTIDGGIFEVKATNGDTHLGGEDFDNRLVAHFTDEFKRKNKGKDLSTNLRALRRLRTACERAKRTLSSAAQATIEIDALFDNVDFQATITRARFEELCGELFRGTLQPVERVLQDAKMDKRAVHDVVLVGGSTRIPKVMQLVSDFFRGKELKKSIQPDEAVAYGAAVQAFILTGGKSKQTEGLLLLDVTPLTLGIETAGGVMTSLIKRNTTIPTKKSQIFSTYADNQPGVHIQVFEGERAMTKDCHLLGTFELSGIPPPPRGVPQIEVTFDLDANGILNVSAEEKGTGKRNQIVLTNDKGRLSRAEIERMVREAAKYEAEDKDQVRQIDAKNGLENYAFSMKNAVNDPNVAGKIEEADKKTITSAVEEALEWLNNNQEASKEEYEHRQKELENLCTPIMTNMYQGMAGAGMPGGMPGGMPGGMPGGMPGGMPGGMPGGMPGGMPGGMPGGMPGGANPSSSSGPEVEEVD

TbHsp70.c-Tbj2 [3] = molecular target: T3, TbHsp70.c-Tbj2 (Trypanosoma brucei, UniProt Q383E9); details: 30 µM methylene blue; 1 µM each protein; 600 µM ATP; 37 °C; activator
T3 construct: gene Tb11.01.3080; recombinant purified TbHsp70.c with recombinant co-chaperone Tbj2 at equal concentration; with Chaperone protein DnaJ, putative (type I J-protein Tbj2)
T3 sequence (Q383E9 1-676): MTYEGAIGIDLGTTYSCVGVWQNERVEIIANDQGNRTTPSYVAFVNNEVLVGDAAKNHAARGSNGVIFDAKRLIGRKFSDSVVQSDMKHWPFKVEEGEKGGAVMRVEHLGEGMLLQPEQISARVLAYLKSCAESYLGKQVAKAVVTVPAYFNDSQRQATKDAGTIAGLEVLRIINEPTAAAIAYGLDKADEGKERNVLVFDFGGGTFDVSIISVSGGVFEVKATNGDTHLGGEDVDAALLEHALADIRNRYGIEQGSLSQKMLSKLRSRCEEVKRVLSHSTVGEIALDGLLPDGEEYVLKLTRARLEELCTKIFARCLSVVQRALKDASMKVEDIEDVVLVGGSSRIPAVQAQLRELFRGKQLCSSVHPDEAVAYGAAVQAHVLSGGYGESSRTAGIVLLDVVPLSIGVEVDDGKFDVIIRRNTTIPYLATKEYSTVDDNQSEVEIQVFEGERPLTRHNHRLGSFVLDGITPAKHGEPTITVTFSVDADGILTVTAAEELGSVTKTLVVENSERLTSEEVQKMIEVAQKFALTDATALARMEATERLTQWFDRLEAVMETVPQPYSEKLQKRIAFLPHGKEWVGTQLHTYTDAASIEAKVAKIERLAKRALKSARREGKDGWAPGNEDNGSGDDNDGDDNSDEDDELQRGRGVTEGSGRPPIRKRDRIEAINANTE
T3 sequence (Q585V4 1-404 partner): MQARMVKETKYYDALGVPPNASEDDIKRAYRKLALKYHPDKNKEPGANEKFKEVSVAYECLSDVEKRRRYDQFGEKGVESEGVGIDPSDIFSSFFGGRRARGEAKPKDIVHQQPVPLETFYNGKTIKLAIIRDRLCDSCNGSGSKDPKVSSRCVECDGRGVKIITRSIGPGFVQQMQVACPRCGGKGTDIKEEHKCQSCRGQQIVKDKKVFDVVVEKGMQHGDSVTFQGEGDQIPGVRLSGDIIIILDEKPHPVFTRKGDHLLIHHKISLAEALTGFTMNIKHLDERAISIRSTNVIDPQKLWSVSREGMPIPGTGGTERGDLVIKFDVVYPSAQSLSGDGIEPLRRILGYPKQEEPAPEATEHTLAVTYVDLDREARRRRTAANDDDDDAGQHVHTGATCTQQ
Text: ATPase assay, colorimetric phosphate release on TbHsp70.c-Tbj2 | in the presence of Tbj2, methylene blue enhanced the ATPase activity of TbHsp70.c

TbHsp70.c-Tbj2 [4] = molecular target: T3, TbHsp70.c-Tbj2; details: 30 µM quercetin; 0.4 µM each protein; 600 µM ATP; 37 °C
TcHsp70B-Tbj2 = molecular target: T4, TcHsp70B-Tbj2 (Trypanosoma cruzi, UniProt P05456); details: 30 µM quercetin; 0.4 µM each protein; 600 µM ATP; 37 °C
T4 construct: gene HSP70; mixed species: recombinant T. cruzi TcHsp70B with recombinant T. brucei co-chaperone Tbj2; with Chaperone protein DnaJ, putative (type I J-protein Tbj2, Trypanosoma brucei)
T4 sequence (P05456 whole entry): as the sequence (P05456 whole entry) above
T4 sequence (Q585V4 1-404 partner): as the sequence (Q585V4 1-404 partner) above

TcHsp70B [5] = molecular target: T2, TcHsp70B; details: 30 µM quercetin; 0.4 µM protein; 600 µM ATP; 37 °C; no Tbj2
TbHsp70.c [6] = molecular target: T1, TbHsp70.c; details: 30 µM quercetin; 0.4 µM protein; 600 µM ATP; 37 °C; no Tbj2

T1 sequence (Q383E9 1-676): as the sequence (Q383E9 1-676) above

Nc1ncnc2c1ncn2[C@@H]1O[C@H](COP(=O)(O)OP(=O)(O)OP(=O)(O)O)[C@@H](O)[C@H]1O [ATP]
ATPase assay, colorimetric phosphate release (TbHsp70.c [1]): Inorganic phosphate released by ATP in the presence of each Hsp70 was monitored | ATPase assay, colorimetric phosphate release (TcHsp70B [2]): Inorganic phosphate released by ATP in the presence of each Hsp70 was monitored

CN(C)c1ccc2nc3ccc(=[N+](C)C)cc-3sc2c1 [methylene blue]
fold increase in Tbj2-stimulated ATPase at 30 μM (TbHsp70.c-Tbj2 [3]): 1.5 fold

O=c1c(O)c(-c2ccc(O)c(O)c2)oc2cc(O)cc(O)c12 [quercetin, 3,3′,4′,5,7-Pentahydroxyflavone]
fold inhibition of Tbj2-stimulated ATPase at 30 μM (TbHsp70.c-Tbj2 [4]): 9.3 fold | fold inhibition of Tbj2-stimulated ATPase at 30 μM (TcHsp70B-Tbj2): 1.4 fold | fold inhibition of basal ATPase at 30 μM (TcHsp70B [5]): 1.3 fold | basal ATPase inhibition at 30 μM (TbHsp70.c [6]): Our findings suggest that quercetin inhibits the basal ATPase activity of TbHsp70.c
